Experimental data from patent US8198290B2, “Methoxatin derivatives” (Berry and Associates, Inc., priority 2009, dated 2012).
Values joined by “and” are separate entries in the source; they are usually repeats but may differ in a detail not shown here. Equal values may be shown once.

These molecules were tested against T1, soluble glucose dehydrogenase (GDH) (Acinetobacter calcoaceticus, UniProt P13650) (assay: GDH assay: coenzyme activity relative to native methoxatin). Conditions: coenzyme activity expressed as a percentage of the methoxatin sample.
T1 sequence (P13650 25-478): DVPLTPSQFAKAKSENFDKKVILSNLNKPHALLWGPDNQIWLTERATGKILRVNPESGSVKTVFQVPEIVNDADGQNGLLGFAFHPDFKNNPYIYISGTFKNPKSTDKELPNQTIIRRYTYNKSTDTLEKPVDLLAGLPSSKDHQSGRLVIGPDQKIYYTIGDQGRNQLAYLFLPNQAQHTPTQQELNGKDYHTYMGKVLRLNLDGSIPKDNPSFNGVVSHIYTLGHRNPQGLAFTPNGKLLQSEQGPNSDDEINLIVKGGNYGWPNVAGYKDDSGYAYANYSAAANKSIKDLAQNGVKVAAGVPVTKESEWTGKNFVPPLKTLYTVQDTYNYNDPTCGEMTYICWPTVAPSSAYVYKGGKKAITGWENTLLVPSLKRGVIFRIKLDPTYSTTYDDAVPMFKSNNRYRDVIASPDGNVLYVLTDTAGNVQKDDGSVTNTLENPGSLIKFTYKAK
Type: biochemical
Set-up: concentration or dose not given beside the values
Method: The coenzyme activity of several compounds relative to native methoxatin was determined with a published assay that utilizes soluble glucose dehydrogenase (GDH) from Acinetobactercalcoaceticus. (Misset-Smits et al., Methods in Enzymol., 280, 89-98 (1997)).

Relative Activity in GDH Assay	Compound
45% and 40%	[N-]=[N+]=NCCOCCOCCOCCONC(=O)c1cc(C(=O)O)c2c(n1)C(=O)C(=O)c1cc(C(=O)O)[nH]c1-2 [Compound 7, 7-(((11-Azido-3,6,9-trioxaundecyl)oxy)carbamoyl)-4,5-dioxo-4,5-dihydro-1H-pyrrolo[2,3-f]quinoline-2,9-dicarboxylic acid]
6%	O=C(/C=C/c1cn([C@H]2C[C@H](O)[C@@H](CO)O2)c(=O)[nH]c1=O)NCCCCCCNC(=O)c1ccc(C(=O)NCCOCCOCCOCCONC(=O)c2cc(C(=O)O)c3c(n2)C(=O)C(=O)c2cc(C(=O)O)[nH]c2-3)c(P(=O)(c2ccccc2)c2ccccc2)c1 [Compound 15, 7-(((1-(2-(diphenylphosphoryl)-4-((6-((E)-3-(1-((2R,4S,5R)-4-hydroxy-5-(hydroxymethyl)tetrahydrofuran-2-yl)-2,4-dioxo-1,2,3,4-tetrahydropyrimidin-5-yl)acrylamido)hexyl)carbamoyl)phenyl)-1-oxo-5,8,11-trioxa-2-azatridecan-13-yl)oxy)carbamoyl)-4,5-dioxo-4,5-dihydro-1H-pyrrolo[2,3-f]quinoline-2,9-dicarboxylic acid]
40% and 45%	C=CCCCONC(=O)c1cc(C(=O)O)c2c(n1)C(=O)C(=O)c1cc(C(=O)O)[nH]c1-2 [Compound 5, 4,5-Dioxo-7-((pent-4-en-1-yloxy)carbamoyl)-4,5-dihydro-1H-pyrrolo[2,3-f]quinoline-2,9-dicarboxylic acid]

Compound	Relative Activity in GDH Assay
O=C(O)c1cc(C(=O)O)c2c(n1)C(=O)C(=O)c1cc(C(=O)O)[nH]c1-2 [Methoxatin]	100%
